“And” between values parts separate entries of the source, which are not always exact repeats. Equal entries are not always repeated.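 Dose response: 5 concentrations. Exposure: 48 h. Format: 96-well plates. Endpoint: linear interpolation; highest concentration if not reached. Abbreviation: GI50, concentration required for 50% inhibition of growth. TGI marks complete inhibition of growth.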
How the values were obtained:
Assay in all cases: inhibition of tumour cell growth, NCI panel, 48 h
COLO 205 colon = tested on: COLO 205 colon
HCC-2998 colon = tested on: HCC-2998 colon
HCT-15 colon = tested on: HCT-15 colon
MALME-3M melanoma = tested on: MALME-3M melanoma
MOLT-4 leukemia = tested on: MOLT-4 leukemia
NCI-H460 lung = tested on: NCI-H460 lung
NCI-H522 lung = tested on: NCI-H522 lung
OVCAR-3 ovarian = tested on: OVCAR-3 ovarian
SF-295 CNS = tested on: SF-295 CNS
SK-MEL-5 melanoma = tested on: SK-MEL-5 melanoma
SN12C renal = tested on: SN12C renal
SNB-75 CNS = tested on: SNB-75 CNS
TK-10 renal = tested on: TK-10 renal

Compound	TGI (COLO 205 colon) [µM]	TGI (HCC-2998 colon) [µM]	TGI (HCT-15 colon) [µM]	TGI (MALME-3M melanoma) [µM]	TGI (MOLT-4 leukemia) [µM]	TGI (NCI-H460 lung) [µM]	TGI (NCI-H522 lung) [µM]	TGI (OVCAR-3 ovarian)	TGI (SF-295 CNS)	TGI (SK-MEL-5 melanoma)	TGI (SN12C renal) [µM]	TGI (SNB-75 CNS)	TGI (TK-10 renal)	GI50 (MOLT-4 leukemia)	GI50 (NCI-H460 lung)	GI50 (NCI-H522 lung)	GI50 (OVCAR-3 ovarian)	GI50 (SF-295 CNS)	GI50 (TK-10 renal)
CC1=NN(C(=O)CC(=O)Nc2ccc(Cl)cc2)C(=O)C1N=Nc1ccc(S(=O)(=O)c2ccc(N=NC3C(=O)N(C(=O)CC(=O)Nc4ccc(Cl)cc4)N=C3C)cc2)cc1 (stereo not given)	> 100	> 100	> 100	> 100	> 100	> 100	> 100	> 100 µM	> 100 µM	> 100 µM	> 100	> 100 µM	79.1 µM	–	–	–	–	–	–
CC(C)(C)OC(=O)NCC(=O)N(CCc1ccc(Cl)c(Cl)c1)CCN1CCCC1	30	16.2	37.4	36.4	28.5	30.2	29.4	32.2 µM	33.1 µM	28.4 µM	32.7	37.2 µM	31.5 µM	–	–	–	–	–	–
COc1ccc2cc(/C=N\NC(=O)Nc3ccc([N+](=O)[O-])cc3)ccc2c1	17.9	20.1	25	22.4	21.8	18.3	26.4	44.1 µM	20.7 µM	17.7 µM	18	23.1 µM	14.4 µM	–	–	–	–	–	–
Cc1ccc(/C=C2\CCCCCC2=O)cc1	> 100	> 100	> 100	> 100	> 100	> 100	> 100	> 100 µM	> 100 µM	> 100 µM	> 100	> 100 µM	> 100 µM	–	–	–	–	–	–
COc1cc(/C=C2\CC(C)C/C(=C\c3ccc(O)c(OC)c3)C2=O)ccc1O (stereo not given)	24.7	12.5	4.93	8.75	17.8	9.45	3.86	6.47 µM	29.8 µM	4.52 µM	8.35	15 µM	15.8 µM	–	–	–	–	–	–
C=CCN1C(=O)/C(=C/c2ccc(OC)cc2)N=C1SC1OC(COC(C)=O)C(OC(C)=O)C(OC(C)=O)C1OC(C)=O (stereo not given)	> 100	> 100	> 100	> 100	> 100	> 100	> 100	30 µM and > 100 µM	48.8 µM and > 100 µM	45.2 µM and > 100 µM	89.4	40.7 µM and > 100 µM	39.6 µM and > 100 µM	58.3 µM and 24.7 µM	24.7 µM and 99.9 µM	5.2 µM and 16.4 µM	13.5 µM and 58.2 µM	21 µM and 70.3 µM	20.2 µM and > 100 µM
COc1ccc(OC2OC(CO)C(O)C(O)C2O)cc1 (stereo not given)	> 100	> 100	> 100	> 100	> 100	> 100	> 100	> 100 µM	> 100 µM	> 100 µM	> 100	> 100 µM	> 100 µM	–	–	–	–	–	–
Nc1ncc(N)c(NCC2(CO)CC(CCc3ccccc3)C2)n1 (stereo not given)	16.8	23.7	36.5	23.7	8.56	30.5	3.58	13.3 µM	24.5 µM	14 µM	24.9	29.4 µM	25.1 µM	–	–	–	–	–	–
